Data as given in the OPERA property sets (Mansouri et al. 2018).

| SMILES | melting point [°C] | boiling point [°C] | further results |
| --- | --- | --- | --- |
| Nc1ccc(O)c(C(=O)O)c1 | 283 |  |  |
| Fc1c(Cl)c(F)c(Cl)c(F)c1Cl |  | 198 |  |
| CC1(C)COC1 |  | 80.6 |  |
| CCCCCCCCCCCCCCCCCC(=O)NCCNC(=O)CCCCCCCCCCCCCCCCC |  |  | ready biodegradability: not readily biodegradable |
| O=C(O)CCc1cc(I)c(Oc2ccc(O)c(I)c2)c(I)c1 | 200 |  |  |
| CCCC(C)C |  | 60.2 | log10 vapour pressure (mmHg): 2.32; ready biodegradability: readily biodegradable |
| Clc1cc(Cl)c2cccc(Cl)c2c1 |  |  | log10 Koa: 7.32 |
| CC(C)(C)c1ccc(O)c(N)c1 | 161 |  |  |
| CC=CC(OCC)OCC |  | 148 |  |
| FC(F)(F)SSC(F)(F)F |  | 34.6 |  |
| Nc1ccnc(N)c1 | 107 |  |  |
| CCCCC(Cl)CCl (centres undefined) |  | 173 |  |
| C[C@H]1C[C@H]1C(=O)O |  | 191 |  |
| CC1=CCCC1C (centres undefined) | -118 | 99 |  |
| CCCCCCCCCC(C)=O | 15 | 232 | log10 Henry constant (atm·m³/mol): -4.2; log10 vapour pressure (mmHg): -1.38 |
| COc1ccc(CC=O)cc1 |  | 256 |  |
| C1=COCCC1 | -70 | 86 |  |
| C=C=CC | -136 | 10.9 | log10 vapour pressure (mmHg): 3.1 |
| Cc1ccc2c(c1N)C(=O)c1ccccc1C2=O | 206 |  | log10 Koc (L/kg): 3.9 |
| C=CC(=O)CC |  | 103 |  |
| O=CC(Cl)Cl |  | 89.2 | log10 vapour pressure (mmHg): 1.74 |
| C=C(Cl)C(=O)O | 66 |  |  |
| CC(C)OC(=O)[C@H](C)N(C(=O)c1ccccc1)c1ccc(F)c(Cl)c1 | 78.5 |  |  |
| CCCCC(CC)C(=O)OCC(COC(=O)C(CC)CCCC)OC(=O)C(CC)CCCC (centres undefined) |  |  | ready biodegradability: readily biodegradable |

| SMILES | melting point [°C] | boiling point [°C] | further results |
| --- | --- | --- | --- |
| O=C(C(Cl)Cl)N(CCO)Cc1ccc(Oc2ccc([N+](=O)[O-])cc2)cc1 | 136 |  |  |
| FC(F)(Br)C(F)(F)C(F)(F)C(F)(F)Br |  | 97 |  |
| CCC(C)(CC)c1cc(NC(=O)c2c(OC)cccc2OC)on1 | 178 |  | log10 Koc (L/kg): 2.4; log10 vapour pressure (mmHg): -8.38 |
| CCC(C)Cc1ccccc1 (centres undefined) |  | 195 |  |
| CCC#CCCO |  | 163 | ready biodegradability: readily biodegradable |
| Nc1cccc2nsnc12 | 68 |  |  |
| Clc1ccccc1-c1cccc(Cl)c1Cl |  |  | log10 Henry constant (atm·m³/mol): -3.7 |
| c1ccc(N(c2ccccc2)c2ccccc2)cc1 | 127 | 365 | log10 Koc (L/kg): 2.26 |
| C=C[Si](OCC)(OCC)OCC |  |  | log10 vapour pressure (mmHg): 0.358 |
| O=S(=O)(O)c1ccc(O)c2ncccc12 | 322 |  |  |
| CC(C)OC(=O)c1ccco1 |  | 198 |  |
| O=C(O)c1c(Cl)ccc(Cl)c1O |  |  | log10 Koc (L/kg): 2.3 |
| N#CCc1ccccc1F |  | 232 |  |
| CC(=O)Nc1ccc(S(=O)(=O)Cl)cc1 | 149 |  |  |
| O=c1oc2cc(O)ccc2s1 | 160 |  |  |
| C=COC(=O)CC | -80 | 91.2 | ready biodegradability: readily biodegradable |
| Cc1cc(N)c2ncccc2c1 | 73 |  |  |
| Oc1cc(Cl)ccc1Cl | 59 | 211 | log10 vapour pressure (mmHg): -1.25; ready biodegradability: not readily biodegradable; log10 BCF (fish): 1.01 |
| OC(Cc1ccccc1)(c1ccccc1)c1ccccc1 | 89.5 |  |  |
| O=Cc1ccc(Br)cc1 | 67 |  |  |
| CCc1nccnc1OC |  |  | log10 Henry constant (atm·m³/mol): -4.83 |
| FC(F)(F)C(F)(F)C(Cl)(Cl)Cl | -80 | 74 |  |
| CC1=CC(=O)C[C@H](C)C1 |  | 208 |  |
| C=Cc1ccc(CC)cc1 | -49.7 | 192 | log10 vapour pressure (mmHg): -0.0246; ready biodegradability: not readily biodegradable; log10 BCF (fish): 2.69 |

| SMILES | melting point [°C] | boiling point [°C] | further results |
| --- | --- | --- | --- |
| c1ccc2c(c1)ccc1c3ccc4ccccc4c3[nH]c21 |  |  | log10 Koc (L/kg): 6.02 |
| Cc1cc(Cl)ccc1N | 30.3 | 244 | ready biodegradability: not readily biodegradable; log10 BCF (fish): 1.54 |
| Cc1ncc(CO)c(C=O)c1O.Cl | 165 |  |  |
| CC(C)(C)c1cc(Cn2c(=O)n(Cc3cc(C(C)(C)C)c(O)c(C(C)(C)C)c3)c(=O)n(Cc3cc(C(C)(C)C)c(O)c(C(C)(C)C)c3)c2=O)cc(C(C)(C)C)c1O |  |  | ready biodegradability: not readily biodegradable |
| O=Cc1ccccc1Br | 21.5 | 230 |  |
| CCN(C)C | -140 | 36.5 |  |
| C=CCNC |  | 65 |  |
| O=C1c2c(O)cccc2C(=O)C2C(O)=CC=CC12 (centres undefined) | 280 |  |  |
| O=C(O)c1cc2ccccc2o1 | 192 | 312 |  |
| C[C@]12CCC(=O)C=C1CC[C@@H]1[C@@H]2C(=O)C[C@@]2(C)[C@H]1CC[C@]2(O)C(=O)CO | 222 |  |  |
| CC[C@](C)(N)C(=O)O (racemic) | 316 |  |  |
| Cc1ccc(C(=O)c2ccccc2)cc1 | 59.5 |  |  |
| CCNC(=O)OCC |  | 176 |  |
| c1ccc2c(c1)ccc1c3ccccc3sc21 | 189 |  | log10 vapour pressure (mmHg): -6.94 |
| CCCCCCCC/C=C\CCCCCCCC(=O)[O-].[Na+] | 234 |  |  |
| CC(=O)c1ccc(C(C)C)cc1 |  | 254 |  |
| Nc1ccc([N+](=O)[O-])cc1C(=O)c1ccccc1 | 163 |  |  |
| NNC(=O)c1ccc(Cl)cc1 | 164 |  |  |
| Nc1ccn([C@@H]2O[C@H](CO)[C@@H](O)[C@@H]2O)c(=O)n1 | 212 |  |  |
| O=[N+]([O-])c1cc([N+](=O)[O-])c(Cl)c(C(F)(F)F)c1 | 63 |  |  |
| CCOP(=S)(OCC)SCC(=O)NC(C)C | 28.5 |  |  |
| CC(Cl)CO (centres undefined) |  | 134 | log10 vapour pressure (mmHg): 0.72 |
| CCCCCCCCSCCO | 0 |  | log10 vapour pressure (mmHg): -3.23 |
| CC(C)=O | -96.5 | 55.8 | log10 Henry constant (atm·m³/mol): -4.46; log10 Koa: 2.31; log10 vapour pressure (mmHg): 2.36; ready biodegradability: readily biodegradable |

| SMILES | melting point [°C] | boiling point [°C] | further results |
| --- | --- | --- | --- |
| Nc1nnc(-c2ccc([N+](=O)[O-])o2)s1 | 280 |  |  |
| CCCCC(=O)C(C)C |  | 158 |  |
| O=C(CCCN1CCC(n2c(=S)[nH]c3ccccc32)CC1)c1ccc(F)cc1 | 202 |  |  |
| O=C(O)c1cccc(C(=O)O)n1 |  |  | ready biodegradability: readily biodegradable |
| Clc1cc(Cl)c(-c2c(Cl)cccc2Cl)c(Cl)c1 | 85 |  |  |
| CC(=O)c1ccc(-n2ccnc2)cc1 |  |  | ready biodegradability: readily biodegradable |
| CCCCNC | -75 | 91 |  |
| CC(=O)OCCOC(C)=O | -31 | 190 | log10 vapour pressure (mmHg): -1.11; ready biodegradability: readily biodegradable |
| N#CCCCOc1ccccc1 | 45.5 | 288 |  |
| Cc1ccc2c(C)cccc2c1C | 33.5 |  |  |
| CCN(CCO)CCCC(C)Nc1ccnc2cc(Cl)ccc12 (centres undefined) | 90 |  |  |
| CC(C)COCCO |  | 160 |  |
| CCC#CCCCCC |  | 157 |  |
| COc1cc(C(=O)c2ccc(Cl)cc2)cc(OC)c1OCCN1CCOCC1 | 91.5 |  |  |
| CCCCCCCCCCCCCCCCCC1CCCCC1 | 38 | 397 |  |
| COc1ccccc1-c1ccccc1OC |  | 308 |  |
| O=C(Nc1ccc(Cl)cc1C(O)c1ccccc1)c1ccncc1 (centres undefined) | 211 |  |  |
| BrC(Br)Br | 8 | 149 | log10 Henry constant (atm·m³/mol): -3.27; log10 Koc (L/kg): 2.06; log10 vapour pressure (mmHg): 0.732; ready biodegradability: not readily biodegradable; log10 BCF (fish): 1.13; log10 biotransformation half-life (days) (fish): -0.7 |
| Cc1ccc2c(c1)CCC2 |  | 202 | log10 biodegradation half-life (days): 0.301 |
| COc1cc(Cl)c(Cl)c(Cl)c1 |  |  | log10 BCF (fish): 3.09 |
| C[N+](C)(C)CCOC(=O)CCC(=O)OCC[N+](C)(C)C.[Br-].[Br-] | 225 |  |  |
| CCCCCCCCCCCCOS(=O)(=O)c1ccccc1 |  |  | ready biodegradability: readily biodegradable |
